The nature of data set [1]: Metabolism of Ang-(1-12) in 1:10 diluted human plasma with and without enzyme inhibitors. The conditions noted are these: 37 °C; for Angiotensin metabolite generated from Ang-(1-12), aliskiren + lisinopril / Angiotensin metabolite generated from Ang-(1-12), aliskiren: 60 min after adding 1000 ng/mL Ang-(1-12), t=0 level subtracted; for Angiotensin metabolite generated from Ang-(1-12), aliskiren + lisinopril: aliskiren 10 µmol/L + lisinopril 10 µmol/L; for Angiotensin metabolite generated from Ang-(1-12), aliskiren: aliskiren 10 µmol/L.
Protocol: Heparin plasma was obtained from 3 healthy volunteers (1 woman, 2 men; age range 30–40 years). The plasma was incubated for 1 hour at 37 °C, in the absence or presence of the renin inhibitor aliskiren (10 µmol/L), the ACE inhibitor lisinopril (10 µmol/L), the chymase inhibitor chymostatin (10 µmol/L), the aminopeptidase A inhibitor amastatin (10 µmol/L), the neprilysin inhibitor sacubitrilat (LBQ-657, 10 µmol/L), or the prolyl oligopeptidase inhibitor ZPP (20 µmol/L). All inhibitors were from Sigma Aldrich, St. Louis, MO. Next, the plasma was diluted 1:10 in PBS (t=0) and incubated again for 1 hour at 37 °C (t=60) with 1000 ng/mL Ang-(1-12; Sigma Aldrich). Samples at 0 and 60 minutes were collected in 6 mol/L guanidine hydrochloride, and angiotensins were quantified by LC-MS/MS.
Human ([sequence], molecular weight: 1508.8 Da) and murine ([sequence], molecular weight: 1572.8 Da) Ang-(1-12) were quantified by LC-MS/MS. […] The powder was dissolved by cooled sonication using a 2-mm microtip (Sonics and Materials, Newton, NJ). Stable isotope-labeled IS for human and murine Ang-(1-12)–containing isoleucine C^13/N^15 (mass +7) at [Ile5] were spiked to tissue homogenates and stabilized blood samples at 1000 pg/mL for internal standardization. The samples then underwent C18-based solid-phase extraction for purification before being subjected to liquid chromatography using a reversed-phase analytical column operating in line with a Xevo TQ-S triple quadruple mass spectrometer (Waters). Two independent MS/MS transitions based on the mass-to-charge ratio of the parent (+3) and fragment ions (+2) were recorded for each analyte and IS simultaneously. Signals from IS were used to correct for peptide recovery in the sample preparation procedure and matrix signal suppression for each analyte in each individual sample.
Data are provided as individual values and means. Statistical analysis was done by the Student’s t test or by ANOVA, followed by post hoc correction according to Dunnett.

Data set [2] concerns chymase. The experiment in a line: intracellular, eg, at tissue sites. The conditions noted are these: cited from earlier work.
In data set [3] the test system is neprilysin. As to the kind of experiment: renal cortical membranes. The conditions noted are these: cited from earlier work.
The test system of data set [4] is angiotensin-converting enzyme (ACE). The experiment in a line: extracellular, eg, in blood. The conditions noted are these: cited from earlier work.
Data set [5] can be described thus: Heparin plasma from 3 healthy volunteers, diluted 1:10 in PBS. Conditions: human, 37 °C, up to 60 minutes.
The nature of data set [6]: Disappearance of Ang-(1-12) added to nonstabilized human plasma incubated at 37 °C. Type of data set: in vitro ADME. The conditions noted are these: LC-MS/MS. Here is the method: MS/MS transitions were as follows:
Signals for all 4 analytes were recorded simultaneously in all samples to show the specificity of the gained signals. […] The lower limit of quantification was 2 fmol/mL in blood and 10 fmol/g in tissue (ie, 3 pg/mL and 15 pg/g, respectively). Ang I, Ang II, Ang III, Ang IV, Ang-(1-7), and Ang-(1-5) were determined by LC-MS/MS as described before.[27],[28]
A rapid collection of blood in 6 mol/L guanidine hydrochloride was chosen for blood collection since this allowed a full recovery of spiked Ang-(1-12; Figure 1A). Importantly, Ang-(1-12) remained undetectable when incubating nonstabilized plasma at 37 °C (Figure 1B), while Ang-(1-12) added to nonstabilized human plasma disappeared almost completely (>80%) within 10 minutes during incubation at 37 °C (Figure 1B). Stabilized human blood samples contained Ang I and Ang II, but Ang-(1-12) was not detectable (Figure 2C). Plasma obtained from the same patients contained normal renin and angiotensinogen levels (Figure 2A and 2B).[29],[30]

A short description of data set [7]: Recovery of spiked Ang-(1-12) from blood collected in 6 mol/L guanidine hydrochloride. Format: in vitro ADME. The conditions noted are these: human blood collected in 6 mol/L guanidine hydrochloride; LC-MS/MS with stable isotope-labeled IS.
Setting [8] is: 1:10 diluted human plasma, LC-MS/MS.

Results on five compounds are retold here after article PMC11251504 (Hypertension (Dallas, Tex. : 1979), 2024).

“Also recorded” adds a separate entry of the source. Peptide text beside a SMILES is read from it. Where only a bound is given, the exact number is not on record here.

Turning to `CC[C@H](C)[C@H](NC(=O)[C@H](Cc1ccc(O)cc1)NC(=O)[C@@H](NC(=O)[C@H](CCCNC(=N)N)NC(=O)[C@@H](N)CC(=O)O)C(C)C)C(=O)O` [Ang-(1-5)] (H-DRVYI-OH), in data set [1] (setting [8]), the “Angiotensin metabolite generated from Ang-(1-12), aliskiren + lisinopril” value is recorded as below 2 pg/mL and the “Angiotensin metabolite generated from Ang-(1-12), aliskiren” value was determined as 983 pg/mL.
For the compound “angiotensin II (DRVYIHPF; Angiotensin-2; UniProt P01019 25-32, looked up) [Ang II]”, in data set [1] (setting [8]), the “Angiotensin metabolite generated from Ang-(1-12), aliskiren + lisinopril” value was found to be 417 pg/mL and the “Angiotensin metabolite generated from Ang-(1-12), aliskiren” value is on record as 7239 pg/mL.
In the case of DRVYIHPFHLVI, the fragment found result is on record as “Ang II” in data set [2], “Ang-(1-7)” in data set [3], “Ang I; also recorded: Ang II” in data set [4] and “Ang I; also recorded: Ang II; also recorded: Ang-(1-5)” in data set [5].
As to `CC[C@H](C)[C@H](NC(=O)[C@H](Cc1ccc(O)cc1)NC(=O)[C@@H](NC(=O)[C@H](CCCNC(=N)N)NC(=O)[C@@H](N)CC(=O)O)C(C)C)C(=O)N[C@@H](Cc1c[nH]cn1)C(=O)N1CCC[C@H]1C(=O)O` [Ang-(1-7)], the “Reduction in metabolite formation from Ang-(1-12) by ACE inhibition” value in data set [1] (1:10 diluted human plasma, 60 min, aliskiren + lisinopril vs aliskiren) came out at 50%. In data set [1] (setting [8]), the “Angiotensin metabolite generated from Ang-(1-12), aliskiren + lisinopril” value worked out at 946 pg/mL and the “Angiotensin metabolite generated from Ang-(1-12), aliskiren” value is reported as 2238 pg/mL.
`CC[C@H](C)[C@H](NC(=O)[C@@H](NC(=O)[C@H](CC(C)C)NC(=O)[C@H](Cc1c[nH]cn1)NC(=O)[C@H](Cc1ccccc1)NC(=O)[C@@H]1CCCN1C(=O)[C@H](Cc1c[nH]cn1)NC(=O)[C@@H](NC(=O)[C@H](Cc1ccc(O)cc1)NC(=O)[C@@H](NC(=O)[C@H](CCCNC(=N)N)NC(=O)[C@@H](N)CC(=O)O)C(C)C)[C@@H](C)CC)C(C)C)C(=O)O` [Ang-(1-12), Angiotensin-(1-12)] (H-DRVYIHPFHLVI-OH): the “Fraction of added Ang-(1-12) that disappeared within 10 minutes” value in data set [6] (10 minutes) is listed as above 80%. Moreover, in data set [6] (10 minutes, read-out: Fraction of added Ang-(1-12) that disappeared within 10 minutes), the metabolised at 10 min is around 80%. Also, the “Time within which added angiotensin-(1-12) disappeared” value in data set [6] is at most 10 min. Besides, the “Recovery of spiked Ang-(1-12)” value in data set [7] is recorded as “full recovery”. The “Contribution of chymase to Ang-(1-12) metabolism” value in data set [1] (1:10 diluted human plasma, 60 min, 1000 ng/mL, chymase inhibitor chymostatin 10 µmol/L, LC-MS/MS, n = 3) is “did not contribute to its metabolism”. Moreover, the “Contribution of prolyl oligopeptidase to Ang-(1-12) metabolism” value in data set [1] (1:10 diluted human plasma, 60 min, 1000 ng/mL, prolyl oligopeptidase inhibitor ZPP 20 µmol/L, LC-MS/MS, n = 3) is “did not contribute to its metabolism”. Further, the “Disappearance of Ang-(1-12) in the presence of aliskiren” value in data set [1] (1:10 diluted human plasma, 60 min, 1000 ng/mL, renin inhibitor aliskiren 10 µmol/L, LC-MS/MS, n = 3) was “unaltered”. The “Change in Ang-(1-12) recovery after inhibiting neprilysin” value in data set [1] (1:10 diluted human plasma, 60 min, 1000 ng/mL, sacubitrilat (LBQ-657) 10 µmol/L, LC-MS/MS, n = 3) is recorded as “did not observe a change”. The “Change of Ang-(1-12) half-life on addition of lisinopril” value in data set [1] (1:10 diluted human plasma, 60 min, 1000 ng/mL, subsequent addition of ACE inhibitor lisinopril 10 µmol/L, LC-MS/MS, n = 3) is listed as “doubling the half-life”. Moreover, the “Change of Ang-(1-12) half-life on addition of amastatin” value in data set [1] (1:10 diluted human plasma, 60 min, 1000 ng/mL, subsequent addition of aminopeptidase A inhibitor amastatin 10 µmol/L, LC-MS/MS, n = 3) is reported as “tripling the half-life”. The “Half-life of Ang-(1-12) corresponding to undiluted plasma” value in data set [1] (extrapolated from 1:10 diluted human plasma) is below 3 min.
